Tests used:
AT1 (h) = molecular target: T1, AT1 (h) (Homo sapiens, UniProt P30556); test: Radioligand binding
T1 construct: Cerep (contract study)

[1] = In vitro metabolism in liver microsomes; settings: mouse liver microsomes, 10 μM
Ames test = settings: 50 μM
P. falciparum strain Dd2 = test: Growth inhibition assay, asexual blood stages; format: cell-based, Plasmodium falciparum; settings: for IC90: Plasmodium falciparum, DD2, 72 h; for absolute Hill coefficient: in vitro growth inhibition curves
401 human kinases = test: Kinase competition assay, whole panel; format: binding; settings: 10 μM
Experimental: (§1) The KINOMEscan was carried out by Ambit (San Diego, USA) according to a previously established protocol. The experiment was based on a competition binding assay that quantitatively measures the ability of a compound to compete with an immobilized, active-site directed ligand. The assay is performed by combining three components: DNA-tagged kinase; immobilized ligand; and a test compound. The ability of the test compound to compete with the immobilized ligand is measured via quantitative PCR of the DNA tag.
(§2) For most assays, kinase-tagged T7 phage strains were grown in parallel in 24-well blocks in an Escherichia coli host derived from the BL21 strain. E. coli were grown to log-phase and infected with T7 phage from a frozen stock and incubated with shaking at 32 °C until lysis (90–150 min). The lysates were centrifuged (6,000g) and filtered (0.2 μm) to remove cell debris. The remaining kinases were produced in HEK-293 cells (Sigma Aldrich, catalogue number: 85120602) and subsequently tagged with DNA for quantitative PCR detection. […] The liganded beads were blocked with excess biotin and washed with blocking buffer (SeaBlock (Pierce), 1% bovine serum albumin, 0.05% Tween 20 and 1 mM dithiothreitol) to remove unbound ligand and to reduce non-specific phage binding. […] The kinase concentration in the eluates was measured by quantitative PCR.

FLT3(ITD) = test: KINOMEscan; format: binding, human; settings: 10 μM
Experimental: as §1, §2

T1 sequence (P30556 whole entry): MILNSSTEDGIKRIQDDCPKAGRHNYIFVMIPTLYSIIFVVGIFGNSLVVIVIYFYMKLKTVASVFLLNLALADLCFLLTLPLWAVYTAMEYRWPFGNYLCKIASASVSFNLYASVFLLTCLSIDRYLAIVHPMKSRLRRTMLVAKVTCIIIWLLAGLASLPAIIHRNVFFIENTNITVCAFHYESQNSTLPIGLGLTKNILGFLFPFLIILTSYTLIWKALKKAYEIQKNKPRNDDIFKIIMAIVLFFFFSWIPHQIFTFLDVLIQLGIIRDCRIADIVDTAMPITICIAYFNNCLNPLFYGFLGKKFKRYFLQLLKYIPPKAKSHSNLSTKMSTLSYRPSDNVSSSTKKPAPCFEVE

Compound | Inhibition of control specific binding (AT1 (h)) [%] | remaining after 60 min of incubation [1] [%] | genotoxicity in a reverse Ames test (Ames test) | IC90 (P. falciparum strain Dd2) [nM] | absolute Hill coefficient (P. falciparum strain Dd2) | interference with 401 human kinases (401 human kinases) | Remaining enzyme activity (FLT3(ITD)) [%]
COC(=O)N1CCN(C(=N)c2cccc(NC(=O)Nc3ccc(S(=O)(=O)NCc4ccc(S(N)(=O)=O)cc4)cc3)c2)CC1 [SC83288, methyl 4-(imino(3-(3-(4-(N-(4-sulfamoylbenzyl)sulfamoyl)phenyl)ureido)phenyl)methyl) piperazine-1-carboxylate] | 6 | 96 | no signs of genotoxicity | 8 | 2.6±0.3 | did not interfere | –
CCCCN1CCN(C(=N)c2cccc(NC(=O)Nc3ccc(S(=O)(=O)NCc4ccc(S(N)(=O)=O)cc4)cc3)c2)CC1 [SC81458, 4-(3-(3-((4-butylpiperazin-1-yl)(imino)methyl)phenyl)ureido)-N-(4-sulfamoylbenzyl) benzenesulfonamide] | 11 | 54 | no signs of genotoxicity | 18 | 2.6±0.3 | did not interfere | 85
